Measurements: patent US20110224221A1, “HEMATOPOIETIC PROTECTION AGAINST IONIZING RADIATION USING SELECTIVE CYCLIN-DEPENDENT KINASE 4/6 INHIBITORS” (priority 2008, published 2011)
“Also recorded” adds a separate entry of the source.

Assays:
[1] = test system: telomerized human diploid fibroblasts (tHDF); test: Cell cycle analysis (BrdU incorporation in vitro), tHDF; format: cell-based; settings: 24 hours exposure
Excerpt: FIG. 3A is a set of graphs showing the dose-response curves for cycle analysis in both cyclin-dependent kinase 4/6 (CKD4/6)-dependent cells (human telomerized human diploid fibroblasts (tHDFs, left-hand column of graphs) and a CDK4/6-dependent human melanoma cell line (WM2664, middle column of graphs)) and in CDK4/6-independent cells (a human retinoblastoma tumor suppressor protein (RB)-null melanoma cell line (A2058), right-hand column of graphs). […] The percentage of cells in the G1 phase is indicated by the data shown in the open triangles, while the percentage of cells in the S phase is shown by the data in the shaded circles and the percentage of cells in the G2/M phase is indicated by the data in the double “x”s.
Cell Lines: KPTR1, KPTR4. and KPTR5 were derived from tumor-bearing TyrRAS+Ink4a/Arf−/− by standard procedures and cultured in RPMI+10% fetal bovine serum (FBS). Telomerized HDFs (tHDFs, also known as HS68) were cultured in DMEM+10% FBS with penicillin and streptomycin. The same conditions were used for A2058 and WM2664, human melanoma cell lines with known RB-pathway mutations: A2058 is RB-null, whereas WM2664 lacks p16^INK4a/Arf. See Shields, et al., Cancer Res., 67, 1502-1512 (2007). Cells were irradiated for indicated doses in a Rad Source Inc. (Alpharetta, Ga., United States of America) RS-2000 Biological Irradiator at 160 kV, 25.0 mA, at distance setting 1, with a dose rate of 103 rads/min.
BrdU Incorporation in vitro: Cells were plated and allowed to adhere overnight or at least 6 hours prior to adding CDK4/6 inhibitor at the indicated concentrations. Cells were grown for 24 hours in the presence of CDK4/6 inhibitor. 15 minutes prior to cell harvesting, 5-Bromo-2-deoxyuridine (BrdU) was added to the media at a final concentration of 10 μM. The cells were then washed, trypsinized, pelleted, fixed, permeabilized, stained, and measured on a flow cytometer as described in manufacturer directions for the BrdU Kit (BD Biosciences Pharmingen, San Diego, Calif., United States of America).
The proliferation of seven RB-deficient human small cell lung cancer lines was also resistant to the selective CDK4/6 inhibitors.

[2] = test system: hematopoietic stem and progenitor cells; test: HSPC proliferation in vivo (BrdU incorporation, Ki67) by flow cytometry; set-up: species or system mice
Protocol: BrdU Incorporation in vivo: Mice were treated once daily for 2 days with PD 0332991 at 150 mg/kg. 5-Bromo-2-deoxyuridine (BrdU) was given 24 hours after the initiation of PD 0332991 and continued until the animals were sacrificed for analysis: 24 hours of BrdU by intraperitoneal (i.p.) injection every 6 hours at a dose of 1 mg.
For HSPC proliferation experiments, mice received daily oral gavage with PD0332991 for 2 days with 1 mg BrdU intraperitoneal injection every 6 hours for 24 hours prior to sacrifice. BM-MNC harvest and immunophenotyping was performed using RBC lysis, biotin-conjugated Lin-panel incubation (Invitrogen Corporation, Carlsbad, Calif., United States of America), paramagnetic bead-conjugated straptavidin (Miltinyi Biotec, Bergisch Gladbach, Germany) incubation, and magnetic depletion using an AutoMACS (Miltinyi Biotec, Bergisch Gladbach, Germany). At least 2×10^6 Lin-depleted cells per mouse were incubated with fluorescently labeled antibodies against cell surface antigens used to identify hematopoietic progenitor subpopulations as previously described (see Passegue et al., J. Exp. Med., 202, 1599-1611 (2005); and Kiel et al., Cell, 121, 1109-1121 (2005): CD34-FITC, CD16/32-PacificBlue, IL7Ra-PE-Cy5, and cKit-APC-Alexa750 from eBiosciences, Inc. (San Diego, Calif., United States of America); Sca1-PE-Cy7, CD150-PE-Cy5, and CD48-PacificBlue from BioLegend (San Diego, Calif., United States of America); and Aqua Live/Dead viability dye (Invitrogen Corporation, Carlsbad, Calif., United States of America). Streptavidin-PE-TexasRed (Invitrogen Corporation, Carlsbad, Calif., United States of America) was used to confirm efficiency of lineage-depletion. After cell surface staining, cells were fixed, permeabilized, and stained with antibodies against Ki67-FITC, BrdU-APC, and caspase3-PE (BD Biosciences Pharmingen, San Diego, Calif., United States of America).
In all experiments, gating based on isotype controls was used as appropriate. Flow cytometry was performed using a CyAn ADP (Dako, Glostrup, Denmark) and analyzed with FlowJo software (Tree Star, Ashland, Oreg., United States of Ameria). For each bone marrow sample, a minimum of 200,000 cells were analyzed. For cell culture samples, a minimum of 20,000 cells were analyzed.
PD0332991, which is orally bioavailable, was administered to adult wild-type C57Bl/6 mice by oral gavage. […] See Passeque et al., J. Exp. Med., 202, 1599-1611 (2005); Wilson et al., Cell, 125, 1118-1129 (2008); and Kiel et al., Nature, 449, 238-U210 (2007).
2BrIC was solubilized for oral gavage using formulation #6 from the Hot Rod formulation kit (Pharmatek, Inc. San Diego, Calif., United States of America) and given by oral gavage 2 hours prior to BrdU injection. Also, an additional dose was given at the time of BrdU injection to sustain the G1 arrest in bone marrow.

[3] = among oligopotent progenitors, 48 hours treatment

| Compound | cell cycle effect [1] | incorporation of BrdU into MPP ([2]; Lin−Kit+Sca1+ cells, oral gavage 2 hours prior to and at BrdU injection, relative to formulation alone) | proliferation in early HSPC (BrdU incorporation, Ki67) ([2]; 48 hours treatment) | proliferation of Lin−Kit−Sca1− and Lin+ cells ([2]; 48 hours treatment) | frequency of HSC doubly positive for expression of Ki67 and BrdU ([2]; HSC (Lin−Kit+Sca1+CD48−CD150+), 48 hours treatment, oral gavage, C57Bl/6) | proliferation of oligopotent progenitors ([2]; Lin−Kit+Sca1−, 48 hours treatment) | proliferation of multipotent progenitor cell compartment ([2]; MPP (Lin−Kit+Sca1+CD48−CD150−), 48 hours treatment) | proliferation of CMP and CLP [2, 3] | proliferation of GMP and MEP [2, 3] |
| --- | --- | --- | --- | --- | --- | --- | --- | --- | --- |
| O=C1NC(=O)c2c1c1c3ccccc3[nH]c1c1[nH]c3cc(Br)ccc3c21 [Compound 2BrIC, 2-bromo-12,13-dihydro-5H-indolo[2,3-a]pyrrolo[3,4]-carbazole-5,6-dione] | strong, reversible G1-arrest | inhibited the incorporation of BrdU; also recorded: clearly reducing proliferation of the MPP | – | – | – | – | – | – | – |
| CC(=O)c1c(C)c2cnc(Nc3ccc(N4CCNCC4)cn3)nc2n(C2CCCC2)c1=O [PD0332991, 6-acetyl-8-cyclopentyl-5-methyl-2-(5-piperazin-1-yl-pyridin-2-ylamino)-8H-pyrido-[2,3-d]-pyrimidin-7-one] | strong, reversible G1-arrest | – | clearly reduces proliferation | no change in proliferation | significantly decreased | modest inhibition of proliferation | more pronounced inhibition of proliferation | strongest effects | weaker effects |
